# Test results taken from PubChem BioAssay (NCI).
#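 In this assay, cells in 96-well plates receive the compound at five concentrations for 48 hours. Endpoints are linearly interpolated between the surrounding concentrations. GI50 = concentration required for 50% inhibition of growth. TGI denotes the concentration required for complete inhibition of growth.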
# Assays:
# Experiment in all cases: DTP human tumour cell line panel, 48 h
# DU-145 prostate = system: DU-145 prostate
# HCT-15 colon = system: HCT-15 colon
# TK-10 renal = system: TK-10 renal
# SK-MEL-5 melanoma = system: SK-MEL-5 melanoma
# SF-295 CNS = system: SF-295 CNS
# SK-OV-3 ovarian = system: SK-OV-3 ovarian
# PC-3 prostate = system: PC-3 prostate
# SF-268 CNS = system: SF-268 CNS
# OVCAR-4 ovarian = system: OVCAR-4 ovarian
# HL-60(TB) leukemia = system: HL-60(TB) leukemia
# SK-MEL-28 melanoma = system: SK-MEL-28 melanoma
# HS 578T breast = system: HS 578T breast
# SW-620 colon = system: SW-620 colon
# UACC-62 melanoma = system: UACC-62 melanoma
# EKVX NSCLC = system: EKVX NSCLC
# OVCAR-3 ovarian = system: OVCAR-3 ovarian
# ACHN renal = system: ACHN renal
# MALME-3M melanoma = system: MALME-3M melanoma
# U251 CNS = system: U251 CNS
# A498 renal = system: A498 renal
# SNB-75 CNS = system: SNB-75 CNS
# IGROV1 ovarian = system: IGROV1 ovarian
# NCI-H460 lung = system: NCI-H460 lung
# HOP-92 NSCLC = system: HOP-92 NSCLC
# HCT-116 colon = system: HCT-116 colon
# SNB-19 CNS = system: SNB-19 CNS
# BT-549 breast = system: BT-549 breast
# UO-31 renal = system: UO-31 renal
# RPMI-8226 leukemia = system: RPMI-8226 leukemia
# UACC-257 melanoma = system: UACC-257 melanoma
# HOP-62 NSCLC = system: HOP-62 NSCLC
# MDA-MB-435 = system: MDA-MB-435
# SF-539 CNS = system: SF-539 CNS
# KM12 colon = system: KM12 colon
# HCC-2998 colon = system: HCC-2998 colon
# A549 NSCLC = system: A549 NSCLC
# SN12C renal = system: SN12C renal
# MCF7 breast = system: MCF7 breast
# K-562 leukemia = system: K-562 leukemia
# NCI-H23 lung = system: NCI-H23 lung
# OVCAR-5 ovarian = system: OVCAR-5 ovarian
# 786-0 renal = system: 786-0 renal
# LOX IMVI melanoma = system: LOX IMVI melanoma
# MOLT-4 leukemia = system: MOLT-4 leukemia
# CCRF-CEM leukemia = system: CCRF-CEM leukemia
# NCI-H522 lung = system: NCI-H522 lung
# M14 melanoma = system: M14 melanoma
# RXF 393 renal = system: RXF 393 renal
# T-47D breast = system: T-47D breast
# COLO 205 colon = system: COLO 205 colon
# SK-MEL-2 melanoma = system: SK-MEL-2 melanoma
# MDA-MB-231 breast = system: MDA-MB-231 breast
# HT29 colon = system: HT29 colon
# OVCAR-8 ovarian = system: OVCAR-8 ovarian
# NCI/ADR-RES ovarian = system: NCI/ADR-RES ovarian
# NCI-H226 lung = system: NCI-H226 lung
# CAKI-1 renal = system: CAKI-1 renal
smiles,measurement,setting,value
COc1cccc2c1[C@H](OC)[C@]13O[C@@]1(C2=O)[C@H](O)[C@H](C)[C@@](O)(C(=O)[C@@H]1O[C@H]1C)[C@@H]3O,TGI,DU-145 prostate,1.13 µM
same,GI50,HCT-15 colon,0.313 µM
same,TGI,HCT-15 colon,1.09 µM
same,GI50,TK-10 renal,0.261 µM
same,TGI,TK-10 renal,0.921 µM
same,GI50,SK-MEL-5 melanoma,0.223 µM
same,TGI,SK-MEL-5 melanoma,0.507 µM
same,GI50,SF-295 CNS,0.285 µM
same,TGI,SF-295 CNS,0.943 µM
same,GI50,SK-OV-3 ovarian,0.345 µM
same,TGI,SK-OV-3 ovarian,2.43 µM
same,GI50,PC-3 prostate,0.304 µM
same,TGI,PC-3 prostate,1.11 µM
same,GI50,SF-268 CNS,0.295 µM
same,TGI,SF-268 CNS,1.03 µM
same,GI50,OVCAR-4 ovarian,0.246 µM
same,TGI,OVCAR-4 ovarian,0.642 µM
same,GI50,HL-60(TB) leukemia,0.238 µM
same,TGI,HL-60(TB) leukemia,0.696 µM
same,GI50,SK-MEL-28 melanoma,0.271 µM
same,TGI,SK-MEL-28 melanoma,0.722 µM
same,GI50,HS 578T breast,0.283 µM
same,TGI,HS 578T breast,0.962 µM
same,GI50,SW-620 colon,0.306 µM
same,TGI,SW-620 colon,> 36 µM
same,GI50,UACC-62 melanoma,0.263 µM
same,TGI,UACC-62 melanoma,0.765 µM
same,GI50,EKVX NSCLC,0.235 µM
same,TGI,EKVX NSCLC,0.655 µM
same,TGI,OVCAR-3 ovarian,0.824 µM
same,GI50,ACHN renal,0.283 µM
same,TGI,ACHN renal,0.82 µM
same,GI50,MALME-3M melanoma,0.2 µM
same,TGI,MALME-3M melanoma,0.436 µM
same,TGI,U251 CNS,> 33 µM
same,GI50,A498 renal,0.215 µM
same,TGI,A498 renal,0.542 µM
same,TGI,SNB-75 CNS,0.605 µM
same,GI50,IGROV1 ovarian,0.295 µM
same,TGI,IGROV1 ovarian,0.894 µM
same,GI50,NCI-H460 lung,0.326 µM
same,TGI,NCI-H460 lung,1.27 µM
same,GI50,HOP-92 NSCLC,0.223 µM
same,TGI,HOP-92 NSCLC,0.717 µM
same,TGI,HCT-116 colon,1.31 µM
same,TGI,SNB-19 CNS,1.06 µM
same,TGI,BT-549 breast,0.838 µM
same,TGI,UO-31 renal,0.8 µM
same,GI50,RPMI-8226 leukemia,0.303 µM
same,TGI,RPMI-8226 leukemia,0.866 µM
same,GI50,UACC-257 melanoma,0.27 µM
same,TGI,UACC-257 melanoma,0.818 µM
same,GI50,HOP-62 NSCLC,0.316 µM
same,TGI,HOP-62 NSCLC,1.79 µM
same,GI50,MDA-MB-435,0.286 µM
same,TGI,MDA-MB-435,0.812 µM
same,TGI,SF-539 CNS,0.698 µM
same,TGI,KM12 colon,1.71 µM
same,GI50,HCC-2998 colon,0.215 µM
same,TGI,HCC-2998 colon,0.485 µM
same,GI50,A549 NSCLC,0.297 µM
same,TGI,A549 NSCLC,10.7 µM
same,GI50,SN12C renal,0.197 µM
same,TGI,SN12C renal,0.691 µM
same,TGI,MCF7 breast,1.12 µM
same,GI50,K-562 leukemia,0.326 µM
same,TGI,K-562 leukemia,> 100 µM
same,GI50,NCI-H23 lung,0.243 µM
same,TGI,NCI-H23 lung,0.611 µM
same,TGI,OVCAR-5 ovarian,0.859 µM
same,GI50,786-0 renal,0.298 µM
same,TGI,786-0 renal,2.06 µM
same,GI50,LOX IMVI melanoma,0.18 µM
same,TGI,LOX IMVI melanoma,0.351 µM
same,GI50,MOLT-4 leukemia,0.335 µM
same,GI50,CCRF-CEM leukemia,0.323 µM
same,TGI,CCRF-CEM leukemia,> 100 µM
same,GI50,NCI-H522 lung,0.264 µM
same,TGI,NCI-H522 lung,0.803 µM
same,TGI,M14 melanoma,0.534 µM
same,GI50,RXF 393 renal,0.203 µM
same,TGI,RXF 393 renal,0.461 µM
same,TGI,T-47D breast,1.86 µM
same,GI50,COLO 205 colon,0.239 µM
same,TGI,COLO 205 colon,0.592 µM
same,GI50,SK-MEL-2 melanoma,0.23 µM
same,TGI,SK-MEL-2 melanoma,0.542 µM
same,GI50,MDA-MB-231 breast,0.237 µM
same,TGI,MDA-MB-231 breast,0.657 µM
same,GI50,HT29 colon,0.321 µM
same,TGI,HT29 colon,1.58 µM
same,GI50,OVCAR-8 ovarian,0.317 µM
same,TGI,OVCAR-8 ovarian,> 100 µM
same,TGI,NCI/ADR-RES ovarian,1.18 µM
same,GI50,NCI-H226 lung,0.275 µM
same,TGI,NCI-H226 lung,0.802 µM
same,TGI,CAKI-1 renal,0.909 µM
